Measurements as given in patent US10918891B2, “Cosmetic treatment method for the skin” (SYNTIVIA, priority 2016, dated 2021).

Assays:
Sirtuin-6 = test: Protein expression of Sirtuin-6 by immunofluorescence in NHDF; format: cell-based, human; settings: (Ia) 10 ppm, 24 hours
Experimental: The cells used for this example are normal human Fibroblasts (NHDF).
In this example, the expression of Sirtuin-6 is measured at the protein level by the technique of immunofluorescence, after in vitro incubation of the cells in the absence or in the presence of compound (Ia) at a concentration of 10 ppm in an aqueous solution with 0.1% dimethylsulfoxide (DMSO).
The cells are cultured at the concentration of 5000 cells per well of 96-well plates, in the presence of standard culture medium for NHDF.
The contact with the compound (Ia) is carried out for 24 hours.
TGFβ is used as a positive control at the concentration of 10 ng/ml in an aqueous solution. A non-treated control is also carried out.
The supernatant is eliminated and the cells are prepared for the fluorescent marking. The cells are fixed in the presence of 3.7% formaldehyde, then permeabilised in a buffer containing 1% Triton®, finally the cells are rinsed and incubated in the presence of an anti-SIRT6 antibody (Abcam) for 2 hours. After washing, the cells are incubated in the presence of the secondary antibody (Alexa GAR488, Invitrogen) for 1 h. After washing, the cells are incubated in the presence of DAPI for 10 min, then rinsed once again.
The fluorescence is then quantified using an automated microscope (ArrayScan® (Cellomics®)).

[1] = tested on: normal human Keratinocytes (NHEK); test: Reactive oxygen species (H2DCFDA probe) in NHEK after single UVA stress; format: cell-based
Experimental: The cells used for this example are normal human Keratinocytes (NHEK).
The antioxidant properties (neutralising the production of reactive oxygen species) of the compound (Ia) are evaluated after a single stress with UVAs on NHEKs, by a test based on the use of the fluorescent probe H2DCFDA on a triple culture.
H2DCFDA (2′-7′dichlorodihydrofluorescein diacetate, Fischer Scientific) is a probe that, after having diffused into the cell and after its acetate group has been split by intracellular esterases, can be oxidised by free radicals (H2O2) into DCF (2′-7′ dichlorofluorescein), a fluorescent compound. The production of the free radicals can thus be quantified by the level of fluorescence emitted by the oxidised probe. The more the cell produces free radicals, the higher the level of fluorescence detected.
After 24 hours of incubation with the compound (Ia) (3 ppm in an aqueous solution with 0.1% dimethylsulfoxide) or the reference elements, the cells are placed in the presence of the H2DCFDA probe at 3 ppm for 1 hour at 37° C., 5% CO2 in order to allow its intracellular diffusion.
The reference antioxidant elements are: Trolox ([…], Sigma), at 20 ppm and Quercetin (quercetin dihydrate, Sigma), at 18 ppm.
After one rinsing, the cells are subjected to a single stress with UVAs (in the absence of compound (Ia)) at a rate of 10 joules per square centimetre. The quantification of the fluorescence emitted (excitation: 485 nm; emission: 520 nm) is carried out immediately after the end of the UVA stress. […]
In order to provide a result representative of the cellular population of each condition after a single stress with UVAs, a cellular viability test (MTS) is carried out immediately after the quantification of the fluorescence emitted. The fluorescence values are thus normalised with respect to the cellular viabilities in order for it to be possible to compare the levels of fluorescence of the various conditions to each other.

IL-8 = IL-8 assay (ELISA) in culture supernatants of NHEK after induction with IL-1β; format: cell-based, human
Experimental: This study is carried out on normal human Keratinocytes (NHEK).
In this example, the anti-inflammatory properties of the compound (Ia) are evaluated by the assay of the IL-8, after the application of the cytokine IL-1β at 10 ng/ml onto NHEKs. IL-8 is a major inflammatory cytokine produced first of all during the inflammatory response of the keratinocytes. The quantification of the IL-8 in the culture supernatants allows an evaluation of the inflammatory state of the cells.
The IL-1β is added to the culture medium of the NHEKs at a rate of 10 ng/ml for 24 h. After incubation, the culture media are removed and replaced with culture media containing the compound (Ia) at 3 ppm. After 24 h of incubation, the supernatants are collected.
The reference anti-inflammatory element is dexamethasone (Sigma) used at 0.4 ppm. A control having undergone the same experimental conditions without the compound (Ia) (CTL), as well as a non-induced control (CTL without IL-1β), are also carried out.
The quantification of the IL-8 in 50 μl of the culture supernatants is measured by an ELISA test (human CXCL8/IL-8 Immunoassay, R&D Systems).
Each treatment is carried out in triplicate.

IL8 = test: Gene expression of IL8 by quantitative RT-PCR in NHEK; format: cell-based, human; settings: (Ia) 3 ppm (10^−5M), 24 hours
Experimental: In these examples, the expression of the messenger RNA is measured by the technique of quantitative RT-PCR (reverse transcription followed by polymerase chain reaction), after incubation in vitro of the various cell types in the absence or in the presence of compound (Ia).
This study was carried out on normal human dermal Fibroblasts (NHDF) or normal human epidermal Keratinocytes (NHEK). The compound (Ia) is tested at 10^−5M in an aqueous solution with 0.1% dimethylsulfoxide.
The cells are cultured at the concentration of 10,000 cells per well of 96-well plates, in the presence of standard culture medium according to the cell type.
The compound (Ia) is then added at the concentration (3 ppm), for 24 hours.
The supernatant is eliminated and the cells are taken up in a specific buffer for the extraction of the messenger RNA (mRNA). The mRNA is purified and reverse transcribed in the presence of a commercial reverse transcriptase.
The complementary DNA (cDNA) obtained is quantified by RT-PCR, by means of suitable primers. The rate of expression of the mRNA is normalised with 5 reference genes.
The cells used for this example are normal human keratinocytes (NHEK).

Cc1ncc(CO)c(CNC(=O)/C=C/c2ccc(O)c(O)c2)c1O [Compound (Ia)]
Protein expression of the Sirtuin-6 compared to the basal level, based on 100% (Sirtuin-6): 113.69%
Assay of the fluorescence with H2DCFDA after irradiation of NHEKs with UVAs ([1]; 24 h incubation, (Ia) 3 ppm, Trolox 20 ppm, Quercetin 18 ppm, UVA 10 J/cm2, normalised to viability (MTS), CTL UVA 289687.6, CTL without stress 16441.9): 198588.8
reduction of the generation of intracellular H2O2 after UVA stress ([1]; NHEK, compound 3 ppm, single UVA stress, FIG. 1): 40%
inhibition at 3 ppm (IL-8; Homo sapiens, compound 3 ppm, versus control CTL, read-out: inhibition of the production of IL8 in keratinocytes subjected to inflammation in the presence of IL-1β): 30%
Quantification of the IL8 (optical density) (IL-8; IL-1β 10 ng/ml 24 h, then substance 24 h, compound (Ia) 3 ppm, dexamethasone 0.4 ppm, CTL 0.23, CTL without IL-1β 0.06): 0.16 optical density
Reduction of the gene expression compared to the basal level based on 100% (IL8) (IL8): −75%
